Laboratory results: the NIST ThermoML archive (doi:10.1021/je5009334)
± gives the expanded uncertainty stated by the source.

Experiment: xn = mol fraction of the nth substance listed
Settings: 101 kPa, Liquid; for speed of sound: Sing-around technique in a fixed-path interferometer; for mass density: Vibrating tube method

CCC(O)CO (stereo not given) [1,2-butanediol] + CCC(C)O
Settings | mass density [kg/m3] | speed of sound [m/s]
298.15 K, x1 = 0.1 | 821.98 ± 0.24 | 1231 ± 1.2
298.15 K, x1 = 0.2 | 841.211 ± 0.24 | 1250.6 ± 1.2
298.15 K, x1 = 0.3 | 860.512 ± 0.24 | 1270.9 ± 1.2
298.15 K, x1 = 0.4 | 879.912 ± 0.25 | 1292.2 ± 1.2
298.15 K, x1 = 0.5 | 899.493 ± 0.25 | 1315.5 ± 1.2
298.15 K, x1 = 0.6 | 919.721 ± 0.24 | 1340.2 ± 1.2
298.15 K, x1 = 0.7 | 939.207 ± 0.24 | 1365.7 ± 1.3
298.15 K, x1 = 0.8 | 959.168 ± 0.23 | 1393.3 ± 1.3
298.15 K, x1 = 0.9 | 978.763 ± 0.23 | 1423.1 ± 1.3
298.15 K, x1 = 1 | 998.509 ± 0.23 | 1452.6 ± 1.3
303.15 K, x1 = 0.1 | 817.802 ± 0.24 | 1213.1 ± 1.2
303.15 K, x1 = 0.2 | 837.068 ± 0.24 | 1233.5 ± 1.2
303.15 K, x1 = 0.3 | 856.416 ± 0.24 | 1253.8 ± 1.2
303.15 K, x1 = 0.4 | 875.848 ± 0.25 | 1275.5 ± 1.2
303.15 K, x1 = 0.5 | 895.477 ± 0.25 | 1299.1 ± 1.2
303.15 K, x1 = 0.6 | 915.764 ± 0.25 | 1324.6 ± 1.2
303.15 K, x1 = 0.7 | 935.294 ± 0.24 | 1350 ± 1.2
303.15 K, x1 = 0.8 | 955.308 ± 0.23 | 1378.1 ± 1.2
303.15 K, x1 = 0.9 | 974.958 ± 0.23 | 1408.3 ± 1.3
303.15 K, x1 = 1 | 994.759 ± 0.23 | 1438.2 ± 1.3
308.15 K, x1 = 0.1 | 813.551 ± 0.24 | 1195.3 ± 1.2
308.15 K, x1 = 0.2 | 832.862 ± 0.24 | 1216 ± 1.2
308.15 K, x1 = 0.3 | 852.256 ± 0.24 | 1236.8 ± 1.2
308.15 K, x1 = 0.4 | 871.737 ± 0.25 | 1258.8 ± 1.2
308.15 K, x1 = 0.5 | 891.419 ± 0.25 | 1282.9 ± 1.2
308.15 K, x1 = 0.6 | 911.761 ± 0.25 | 1308.7 ± 1.2
308.15 K, x1 = 0.7 | 931.345 ± 0.24 | 1334.5 ± 1.2
308.15 K, x1 = 0.8 | 951.414 ± 0.23 | 1362.8 ± 1.2
308.15 K, x1 = 0.9 | 971.12 ± 0.23 | 1393.4 ± 1.2
308.15 K, x1 = 1 | 990.971 ± 0.23 | 1423.6 ± 1.3
313.15 K, x1 = 0.1 | 809.205 ± 0.24 | 1177.3 ± 1.2
313.15 K, x1 = 0.2 | 828.579 ± 0.24 | 1198.2 ± 1.2
313.15 K, x1 = 0.3 | 848.033 ± 0.24 | 1219.7 ± 1.2
313.15 K, x1 = 0.4 | 867.576 ± 0.25 | 1242.2 ± 1.2
313.15 K, x1 = 0.5 | 887.316 ± 0.25 | 1266.7 ± 1.2
313.15 K, x1 = 0.6 | 907.718 ± 0.25 | 1292.9 ± 1.2
313.15 K, x1 = 0.7 | 927.356 ± 0.24 | 1319 ± 1.2
313.15 K, x1 = 0.8 | 947.483 ± 0.23 | 1347.7 ± 1.2
313.15 K, x1 = 0.9 | 967.241 ± 0.23 | 1378.5 ± 1.2
313.15 K, x1 = 1 | 987.152 ± 0.23 | 1409.1 ± 1.3
318.15 K, x1 = 0.1 | 804.796 ± 0.24 | 1159.3 ± 1.2
318.15 K, x1 = 0.2 | 824.244 ± 0.24 | 1180.7 ± 1.2
318.15 K, x1 = 0.3 | 843.762 ± 0.24 | 1202.6 ± 1.2
318.15 K, x1 = 0.4 | 863.365 ± 0.25 | 1225.5 ± 1.2
318.15 K, x1 = 0.5 | 883.169 ± 0.26 | 1250.5 ± 1.2
318.15 K, x1 = 0.6 | 903.63 ± 0.25 | 1277 ± 1.2
318.15 K, x1 = 0.7 | 923.329 ± 0.24 | 1303.5 ± 1.2
318.15 K, x1 = 0.8 | 943.516 ± 0.23 | 1332.5 ± 1.2
318.15 K, x1 = 0.9 | 963.332 ± 0.23 | 1363.6 ± 1.2
318.15 K, x1 = 1 | 983.297 ± 0.23 | 1394.5 ± 1.2
323.15 K, x1 = 0.1 | 800.305 ± 0.24 | 1141.5 ± 1.2
323.15 K, x1 = 0.2 | 819.834 ± 0.24 | 1163.1 ± 1.2
323.15 K, x1 = 0.3 | 839.427 ± 0.24 | 1185.5 ± 1.2
323.15 K, x1 = 0.4 | 859.1 ± 0.25 | 1208.9 ± 1.2
323.15 K, x1 = 0.5 | 878.969 ± 0.26 | 1234.3 ± 1.2
323.15 K, x1 = 0.6 | 899.488 ± 0.25 | 1260.8 ± 1.2
323.15 K, x1 = 0.7 | 919.266 ± 0.24 | 1288.4 ± 1.2
323.15 K, x1 = 0.8 | 939.516 ± 0.24 | 1317.6 ± 1.2
323.15 K, x1 = 0.9 | 959.384 ± 0.23 | 1348.7 ± 1.2
323.15 K, x1 = 1 | 979.406 ± 0.23 | 1379.9 ± 1.2

CC(O)CCO (stereo not given) [1,3-butanediol] + CCC(O)CO
Settings | mass density [kg/m3] | speed of sound [m/s]
298.15 K, x2 = 0 | 1001.82 ± 0.84 | 1527.8 ± 2.1
298.15 K, x2 = 0.1 | 1001.83 ± 0.76 | 1523.2 ± 2.1
298.15 K, x2 = 0.2 | 1001.78 ± 0.69 | 1517.9 ± 2
298.15 K, x2 = 0.3 | 1001.74 ± 0.61 | 1512.7 ± 1.9
298.15 K, x2 = 0.4 | 1001.61 ± 0.55 | 1507.1 ± 1.8
298.15 K, x2 = 0.5 | 1001.24 ± 0.48 | 1498.9 ± 1.7
298.15 K, x2 = 0.6 | 1000.94 ± 0.42 | 1492.2 ± 1.6
298.15 K, x2 = 0.7 | 1000.36 ± 0.37 | 1482.6 ± 1.5
298.15 K, x2 = 0.8 | 999.812 ± 0.32 | 1473.2 ± 1.4
298.15 K, x2 = 0.9 | 999.175 ± 0.27 | 1463.1 ± 1.4
303.15 K, x2 = 0 | 998.418 ± 0.84 | 1514.1 ± 2.1
303.15 K, x2 = 0.1 | 998.382 ± 0.76 | 1509 ± 2.1
303.15 K, x2 = 0.2 | 998.283 ± 0.68 | 1503.9 ± 2
303.15 K, x2 = 0.3 | 998.2 ± 0.61 | 1498.2 ± 1.9
303.15 K, x2 = 0.4 | 998.02 ± 0.54 | 1492.5 ± 1.8
303.15 K, x2 = 0.5 | 997.617 ± 0.48 | 1484.3 ± 1.7
303.15 K, x2 = 0.6 | 997.284 ± 0.42 | 1477.4 ± 1.6
303.15 K, x2 = 0.7 | 996.675 ± 0.37 | 1468 ± 1.5
303.15 K, x2 = 0.8 | 996.1 ± 0.32 | 1458.5 ± 1.4
303.15 K, x2 = 0.9 | 995.436 ± 0.27 | 1448.3 ± 1.4
308.15 K, x2 = 0 | 994.987 ± 0.83 | 1500.2 ± 2.1
308.15 K, x2 = 0.1 | 994.902 ± 0.75 | 1494.9 ± 2.1
308.15 K, x2 = 0.2 | 994.756 ± 0.68 | 1489.6 ± 2
308.15 K, x2 = 0.3 | 994.626 ± 0.61 | 1483.8 ± 1.9
308.15 K, x2 = 0.4 | 994.403 ± 0.54 | 1478 ± 1.8
308.15 K, x2 = 0.5 | 993.965 ± 0.48 | 1469.7 ± 1.7
308.15 K, x2 = 0.6 | 993.596 ± 0.42 | 1462.7 ± 1.6
308.15 K, x2 = 0.7 | 992.955 ± 0.37 | 1453.3 ± 1.5
308.15 K, x2 = 0.8 | 992.352 ± 0.32 | 1443.8 ± 1.4
308.15 K, x2 = 0.9 | 991.664 ± 0.27 | 1433.7 ± 1.3
313.15 K, x2 = 0 | 991.528 ± 0.83 | 1486.3 ± 2.1
313.15 K, x2 = 0.1 | 991.39 ± 0.75 | 1480.8 ± 2
313.15 K, x2 = 0.2 | 991.196 ± 0.67 | 1475.3 ± 2
313.15 K, x2 = 0.3 | 991.02 ± 0.6 | 1469.3 ± 1.9
313.15 K, x2 = 0.4 | 990.753 ± 0.54 | 1463.5 ± 1.8
313.15 K, x2 = 0.5 | 990.276 ± 0.48 | 1455.1 ± 1.7
313.15 K, x2 = 0.6 | 989.874 ± 0.42 | 1448 ± 1.6
313.15 K, x2 = 0.7 | 989.201 ± 0.37 | 1438.5 ± 1.5
313.15 K, x2 = 0.8 | 988.572 ± 0.32 | 1429.1 ± 1.4
313.15 K, x2 = 0.9 | 987.858 ± 0.27 | 1419 ± 1.3
318.15 K, x2 = 0 | 988.035 ± 0.82 | 1472.3 ± 2.1
318.15 K, x2 = 0.1 | 987.845 ± 0.74 | 1466.5 ± 2
318.15 K, x2 = 0.2 | 987.595 ± 0.67 | 1460.6 ± 2
318.15 K, x2 = 0.3 | 987.379 ± 0.6 | 1454.9 ± 1.9
318.15 K, x2 = 0.4 | 987.07 ± 0.54 | 1449 ± 1.8
318.15 K, x2 = 0.5 | 986.554 ± 0.47 | 1440.5 ± 1.7
318.15 K, x2 = 0.6 | 986.118 ± 0.42 | 1433.3 ± 1.6
318.15 K, x2 = 0.7 | 985.412 ± 0.36 | 1423.9 ± 1.5
318.15 K, x2 = 0.8 | 984.756 ± 0.32 | 1414.3 ± 1.4
318.15 K, x2 = 0.9 | 984.01 ± 0.27 | 1404.4 ± 1.3
323.15 K, x2 = 0 | 984.506 ± 0.82 | 1458.3 ± 2.1
323.15 K, x2 = 0.1 | 984.262 ± 0.74 | 1452.5 ± 2
323.15 K, x2 = 0.2 | 983.961 ± 0.67 | 1446.2 ± 2
323.15 K, x2 = 0.3 | 983.701 ± 0.6 | 1440.4 ± 1.9
323.15 K, x2 = 0.4 | 983.35 ± 0.53 | 1434.3 ± 1.8
323.15 K, x2 = 0.5 | 982.795 ± 0.47 | 1425.8 ± 1.7
323.15 K, x2 = 0.6 | 982.326 ± 0.42 | 1418.6 ± 1.6
323.15 K, x2 = 0.7 | 981.586 ± 0.36 | 1409.1 ± 1.5
323.15 K, x2 = 0.8 | 980.82 ± 0.32 | 1399.6 ± 1.4
323.15 K, x2 = 0.9 | 980.034 ± 0.27 | 1390.1 ± 1.3
